Measured values from US20240385195A1, “PEPTIDE FOR DETECTING CA125 AND USE THEREOF” (Ajou University Industry-Academic Cooperation Foundation, priority 2022, published 2024).
No end group written: not given here.

Assays:
CA125 protein = test: ELISA assay of binding affinity and specificity; set-up: species or system human; details: HRP-conjugated M13 antibody, TMB, FIG. 1
Procedure: (§1) In order to evaluate the binding affinity and specificity of the discovered SEQ ID NO: 1 peptide to the CA125 protein, and the binding affinity and specificity of the SEQ ID NO: 2 peptide to HE4, ELISA assay was performed according to the manufacturer's instructions using CA125 protein (R&D Systems Inc, MN, USA), HE4 protein (Sinobiological, PA, USA), HRP-conjugated M13 antibody (Sinobiological, PA, USA), and TMB solution (Thermo Scientific, MA, USA). In addition, to measure the binding affinity Kd (dissociation constant), the discovered peptides of SEQ ID NO: 1 and SEQ ID NO: 2 were synthesized (Biostem, Suwon, Korea), CA125 protein and HE4 protein were each fluorescently labeled using Protein Labeling kit RED-NHS 2nd Generation (NanoTemper Technologies, Munich, Germany). Afterwards, the binding affinity between peptide and protein was measured using Monolith NT.115 (NanoTemper Technologies, Munich, Germany) according to the manufacturer's instructions.

HE4 protein = biological target: T1, HE4 protein (Homo sapiens, UniProt Q14508); test: ELISA assay of binding affinity and specificity; details: HRP-conjugated M13 antibody, TMB, FIG. 1
T1 construct: purchased Sinobiological, PA, USA
T1 sequence (Q14508 31-124): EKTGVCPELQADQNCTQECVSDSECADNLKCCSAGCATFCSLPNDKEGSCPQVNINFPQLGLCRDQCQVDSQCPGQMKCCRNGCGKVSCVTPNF
Procedure: as §1

Row | Substance | specific binding to CA125 protein (CA125 protein) | specific binding to HE4 protein (HE4 protein)
1 | HTHGAARVPDHR [SEQ ID NO: 1] | specifically bound to the CA125 protein | –
2 | LGSKPIN [SEQ ID NO: 2, LGSKPIN] | – | specifically bound to the HE4 protein
